Assay results from doi:10.1101/2020.06.11.145995v1 (biorxiv, 2020).

Target: T1, C202S (C218S) mutant MKK7 kinase domain (Homo sapiens, UniProt O14733, C202S)
T1 sequence (O14733 1-419 C202S): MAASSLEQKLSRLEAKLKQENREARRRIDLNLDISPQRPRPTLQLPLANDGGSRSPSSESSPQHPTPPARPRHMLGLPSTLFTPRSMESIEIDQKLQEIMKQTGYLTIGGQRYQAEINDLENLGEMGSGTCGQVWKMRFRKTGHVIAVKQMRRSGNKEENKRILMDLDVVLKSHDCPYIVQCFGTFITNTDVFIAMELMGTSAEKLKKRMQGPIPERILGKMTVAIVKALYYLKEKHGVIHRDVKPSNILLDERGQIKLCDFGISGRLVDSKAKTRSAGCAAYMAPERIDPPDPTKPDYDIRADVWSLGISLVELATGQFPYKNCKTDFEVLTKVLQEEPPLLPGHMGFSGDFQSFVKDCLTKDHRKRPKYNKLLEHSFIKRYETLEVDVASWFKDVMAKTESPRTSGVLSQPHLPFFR
Conditions: binder

ΔTm C202S [°C] | Compound
4.9 | Cc1cc(Nc2cc(C3CC3)[nH]n2)nc(Nc2ccc(CC#N)cc2)n1 [ASC69]
3.5 | CCN1CCN(Cc2ccc(NC(=O)c3ccc(C)c(C=Cc4cnc5[nH]ccc5c4OC)c3)cc2C(F)(F)F)CC1 [K03427, HG-6-64-01]
0.6 | O=C1NC(=O)C(=Cc2ccc3c(c2)OC(F)(F)O3)S1 [K00828, PI3Kg inhib II (528108)]
3.3 | Brc1c(Br)c(Br)c2[nH]nnc2c1Br [K00040, TBB (218697)]

Compound | ΔTm C202S [°C]
O=C1Nc2ccccc2/C1=C/c1c[nH]cn1 [K00007] | 2.3
